Assays:
[1] = system: surviving UVA irradiated human skins (8 J/cm^2); experiment: activity on surviving UVA irradiated human skins, morphometry of elastic fibres and collagen; conditions: UVA 8 J/cm^2 + 5 μl of compound at 0.2% in ethanol every two days; 7 days, 37° C.; four donors
Protocol: The activity of the compound in example 2 has been evaluated on surviving UVA irradiated human skins (8 J/cm^2). Fragments of normal human skin, originating from four different donors, are placed in inserts positioned in culture wells. Some antibiotic supplemented culture medium is added in the bottom of the wells. A passage occurs through slow diffusion between both compartments by means of a porous membrane (pore size: 12 μm). The culture medium is renewed every three days. On the skin fragments, every two days, are added 5 μl of the compound to be tested, previously put in a solution at 0.2% in ethanol. The skins are kept surviving for 7 days at 37° C. The skins are irradiated once at 8 J/cm^2 at 37° C. (Vilbert-Lourmat lamp, RMX-3W). The elastic fibres are coloured in blue using (+) catechin and are morphometrically quantified by computer assisted picture analysis. The surface percentage of average dermis occupied by the elastic fibres was evaluated this way.

[2] = target: T1, human leukocyte elastase (HLE) (Homo sapiens, UniProt P08246); experiment: anti-elastase activity relative to human leukocyte elastase, Me-OSAAPV-p-NA substrate, spectrophotometry; format: biochemical
T1 sequence (P08246 30-267): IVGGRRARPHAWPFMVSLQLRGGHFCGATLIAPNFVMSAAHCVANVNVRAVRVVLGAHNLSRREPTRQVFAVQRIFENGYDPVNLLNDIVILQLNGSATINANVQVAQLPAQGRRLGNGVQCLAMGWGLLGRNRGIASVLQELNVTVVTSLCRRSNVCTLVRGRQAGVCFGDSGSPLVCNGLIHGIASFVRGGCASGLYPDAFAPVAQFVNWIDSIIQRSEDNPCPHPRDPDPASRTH
Protocol: The anti-elastase activity of compounds according to the invention has been determined relative to human leukocyte elastase (HLE).
The test is performed as follows. […]
The inhibition % of the control elastase activity is then determined through spectrophotometry.

[3] = system: surviving human skins treated by human leukocyte elastase (HLE); experiment: ex vivo activity on fresh cuts of surviving human skins treated by HLE for 2 hours, elastic fibre morphometry; conditions: 20° C.
Protocol: The ex vivo activity of the compound in example 2 has been evaluated on surviving human skins treated by human leukocyte elastase (HLE). Fresh cuts from human skins, originating from 2 different donors, are treated for 2 hours, at 20° C., by 20 μl of a buffer solution (pH 7.4) optionally comprising 10 μg/ml of HLE and optionally 0.1% of the compound to be tested, optionally previously put in a solution in ethanol. The elastic fibres are coloured in blue using (+) catechin and are morphometrically quantified by computer assisted picture analysis. The surface percentage of average dermis occupied by the elastic fibres was evaluated this way.

[4] = system: surviving human skins treated by human leukocyte elastase (HLE); experiment: ex vivo activity on human skin fragments kept surviving 10 days in culture with HLE, elastic fibre morphometry; conditions: HLE 0.5 μg per ml of medium + 5 μl of compound at 0.2% in ethanol every other day, 37° C., 3 donors
Protocol: The ex vivo activity of the compound in example 2 has been evaluated on surviving human skins treated by human leukocyte elastase (HLE). Fragments of normal human skin, originating from 3 different donors, are placed in inserts positioned in culture wells. Some antibiotic supplemented culture medium is added in the bottom of the wells. A passage occurs through slow diffusion between both compartments by means of a porous membrane (pore size: 12 μm). The culture medium is renewed every three days. Optionally 0.5 μg of HLE per ml of culture medium are optionally added on the skin fragments. Also are added, every other day, 5 μl of the compound to be tested, previously put in a solution at 0.2% in weight in ethanol. The skins are kept surviving for 10 days at 37° C. The elastic fibres are coloured in blue using (+) catechin and are morphometrically quantified by computer assisted picture analysis. The surface percentage of average dermis occupied by the elastic fibres was evaluated this way.

SMILES | Morphometric analysis of the collagen (superficial dermis) [1] [%] | Morphometric analysis of the elastic fibres (superficial dermis) [1] [%] | Inhibition % of the control elastase activity ([2]; concentration of compound A 0.2%) [%] | inhibition of the elastase activity (in words) ([2]; even in a low amount) | Surface % occupied by the elastic fibres ([3]; Skin 1, HLE 10 μg/ml + 0.1% compound) [%] | Surface % occupied by the elastic fibres ([3]; Skin 2, HLE 10 μg/ml + 0.1% compound) [%] | Surface % occupied by the elastic fibres [4] [%] | Inhibition % of the control elastase activity ([2]; compound concentration 0.1%, HLE 40 milli-units per ml, 37° C., 60 minutes) [%]
CC(=O)N(c1cccc(C(F)(F)F)c1)C(C(=O)NCC(=O)O)C(C)C (centres unmarked) [Compound A, {2-[acetyl-(3-trifluoromethyl-phenyl)-amino]-3-methyl-butyrylamino}acetic acid] | 92 | 6.8 | 68 | strong inhibition | 13.95 | 11.85 | 7.1 | –
CCOC(=O)CNC(=O)C(C(C)C)N(Cc1ccccc1)C(=O)CP(=O)(OCC)OCC (centres unmarked) [Compound B, ethyl (2-{benzyl-[(diéethoxyphosphoryl)-acetyl]-amino}-3-méthylbutyrylamino) acetate] | – | – | – | – | – | – | – | 17

Source: patent publication US20040191203A1, “Cosmetic or dermatological composition comprising n-acylaminoamide derivatives” (priority 2001, published 2004)
